Measurements published in patent US10508109B2 (priority 2015, dated 2019).

Legend:
[1] = tested on: A549; experiment: Cell-based assay, anti-proliferative activity (Cell Counting Kit-8, 72 hours); conditions: Homo sapiens; A549 cells, Cell Counting Kit-8, 72 hours; read-out: IC50 (μM) A549
In short: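 After compound exposure of cells in 96-well plates, growth was measured colorimetrically and converted into IC50 values.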

[2] = tested on: CCD-18Co; experiment: as above; conditions: Homo sapiens; CCD-18Co cells, Cell Counting Kit-8, 72 hours; read-out: IC50 (μM) CCD-18Co
In short: (§1)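 CCK-8 growth read-out at 72 h post compound exposure; 96-well seeding. IC50 from 8-point dilution (0–100 micro-M, twofold steps from 1.5625 micro-M).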

[3] = tested on: HCT-116; experiment: as above; conditions: Homo sapiens; HCT-116 cells, Cell Counting Kit-8, 72 hours; read-out: IC50 (μM) HCT-116
In short: as §1

[4] = tested on: HFL1; experiment: as above; conditions: Homo sapiens; HFL1 cells, Cell Counting Kit-8, 72 hours; read-out: IC50 (μM) HFL1
In short: as §1

[5] = tested on: PC14; experiment: as above; conditions: Homo sapiens, PC-14; PC14 cells, Cell Counting Kit-8, 72 hours; read-out: IC50 (μM) PC14
In short: as §1

[6] = biological target: SUV39H2 (Homo sapiens (Human), UniProt Q9H5I1); conditions: read-out: IC50 (μM) Suv 39H2 assay; enzyme assay
Chain of SUV39H2 (Q9H5I1 whole entry): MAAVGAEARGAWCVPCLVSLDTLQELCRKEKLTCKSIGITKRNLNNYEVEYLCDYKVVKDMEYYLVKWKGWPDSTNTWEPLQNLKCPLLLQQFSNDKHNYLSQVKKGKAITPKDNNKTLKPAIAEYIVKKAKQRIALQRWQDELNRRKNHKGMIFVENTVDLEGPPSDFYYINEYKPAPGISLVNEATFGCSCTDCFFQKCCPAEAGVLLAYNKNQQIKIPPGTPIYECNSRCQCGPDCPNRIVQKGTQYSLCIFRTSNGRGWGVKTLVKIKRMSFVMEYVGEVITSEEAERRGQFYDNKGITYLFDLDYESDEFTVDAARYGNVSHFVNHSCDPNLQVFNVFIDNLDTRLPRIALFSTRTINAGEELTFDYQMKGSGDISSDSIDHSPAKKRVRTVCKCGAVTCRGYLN

| Structure (SMILES) | IC50 [1] | IC50 [2] | IC50 [3] | IC50 [4] | IC50 [5] | IC50 [6] |
| --- | --- | --- | --- | --- | --- | --- |
| COc1cc(OC)c(-c2cn3ccc(N4CCN(CCN5CCN(C(=O)OC(C)(C)C)CC5)CC4)cc3n2)cc1Cl [Example 136, tert-butyl 4-(2-(4-(2-(5-chloro-2,4-dimethoxyphenyl)imidazo[1,2-a]pyridin-7-yl)piperazin-1-yl)ethyl)piperazine-1-carboxylate] | 1.5 µM | 1.8 µM | 1.5 µM | 1.8 µM | 2.2 µM | 0.0166 µM |
| COc1cc(OC)c(-c2cn3ccc(N4CCN(CCC(N)=O)CC4)cc3n2)cc1Cl [Example 137, 3-(4-(2-(5-chloro-2,4-dimethoxyphenyl)imidazo[1,2-a]pyridin-7-yl)piperazin-1-yl)propanamide] | 24 µM | 14 µM | 14 µM | 13 µM | 12 µM | 0.00454 µM |
| COc1cc(OC)c(-c2cn3ccc(N4CCNC4=O)cc3n2)cc1Cl [Example 138, 1-(2-(5-chloro-2,4-dimethoxyphenyl)imidazo[1,2-a]pyridin-7-yl)-imidazolidin-2-one] | 5.2 µM | 2.2 µM | 16 µM | 5.5 µM | 3.6 µM | 0.0201 µM |
| COc1cc(OCCCN(C)C)c(-c2cn3ccc(N4CCNCC4)cc3n2)cc1Cl [Example 139, 3-{4-chloro-5-methoxy-2-[7-(piperazin-1-yl)imidazo[1,2-a]pyridin-2-yl]phenoxy}-N,N-dimethylpropan-1-amine] | 1.7 µM | 2.5 µM | 2.4 µM | 1.6 µM | 2.1 µM | 0.025 µM |
| CCOC(=O)CCN1CC=C(c2ccn3cc(-c4cc(Cl)c(OC)cc4OC)nc3c2)CC1 [Example 140, ethyl 3-(4-(2-(5-chloro-2,4-dimethoxyphenyl)imidazo[1,2-a]pyridin-7-yl)-5,6-dihydropyridin-1(2H)-yl)propanoate] | 25 µM | 56 µM | 16 µM | 27 µM | 12 µM | 0.0578 µM |
| COc1cc(OC)c(-c2cn3ccc(N4CCN(CCN5CCNCC5)CC4)cc3n2)cc1Cl [Example 142, 2-(5-chloro-2,4-dimethoxyphenyl)-7-(4-(2-(piperazin-1-yl)ethyl)piperazin-1-yl)imidazo-[1,2-a]pyridine] | 6.6 µM | 7.8 µM | 8.2 µM | 7.1 µM | 8.7 µM | 0.00785 µM |
| COc1cc(OC)c(-c2cn3ccc(N4CCN(CCN5CCCC5)CC4)cc3n2)cc1Cl [Example 143, 2-(5-chloro-2,4-dimethoxyphenyl)-7-(4-(2-(pyrrolidin-1-yl)ethyl)piperazin-1-yl)imidazo[1,2-a]pyridine] | 4 µM | 2.7 µM | 8.1 µM | 8.5 µM | 4.4 µM | 0.0044 µM |
| COc1cc(OC)c(-c2cn3ccc(C4=CCN(CCN5CCOCC5)CC4)cc3n2)cc1Cl [Example 144, 4-(2-{4-[2-(5-chloro-2,4-dimethoxyphenyl)imidazo[1,2-a]pyridin-7-yl]-5,6-dihydropyridin-1(2H)-yl}ethyl)morpholine] | 3.9 µM | 6.3 µM | 5.9 µM | 7 µM | 1.5 µM | 0.0191 µM |
| COc1cc(OC)c(-c2cn3ccc(N4CCN(C(=O)OC(C)(C)C)CC4)nc3n2)cc1Cl [Example 145, tert-butyl 4-[2-(5-chloro-2,4-dimethoxyphenyl)imidazo[1,2-a]pyrimidin-7-yl]piperazine-1-carboxylate] | 1.9 µM | 2.8 µM | 3.1 µM | 2.8 µM | 1.5 µM | 0.0738 µM |
| COc1cc(OC)c(-c2cn3ccc(N4CCN(S(=O)(=O)C5CC5)CC4)nc3n2)cc1Cl [Example 146, 2-(5-chloro-2,4-dimethoxyphenyl)-7-[4-(cyclopropylsulfonyl)piperazin-1-yl]imidazo[1,2-a]pyrimidine] | 0.49 µM | 4.2 µM | 0.69 µM | 1.4 µM | 0.24 µM | 0.0247 µM |
| COc1cc(OC)c(-c2cn3ccc(C4=CCN(CCN5CCCCC5)CC4)cc3n2)cc1Cl [Example 147, 2-(5-chloro-2,4-dimethoxyphenyl)-7-(1-(2-(piperidin-1-yl)ethyl)-1,2,3,6-tetrahydropyridin-4-yl)imidazo[1,2-a]pyridine] | 7 µM | 6 µM | 7.3 µM | 8.7 µM | 5.9 µM | 0.0295 µM |
| COc1cc(OCCCN(C)C)c(-c2cn3ccc(N4CCC(NC(=O)OC(C)(C)C)CC4)cc3n2)cc1Cl [Example 148, tert-butyl (1-(2-{5-chloro-2-[3-(dimethylamino)propoxy]-4-methoxyphenyl}imidazo[1,2-a]pyridin-7-yl)piperidin-4-yl)carbamate] | 1.8 µM | 0.78 µM | 1.3 µM | 0.53 µM | 1.4 µM | 0.0373 µM |
| COc1cc(OC)c(-c2cn3ccc(N4CCC(CNS(=O)(=O)C5CC5)CC4)cc3n2)cc1Cl [Example 149, N-((1-(2-(5-Chloro-2,4-dimethoxyphenyl)imidazo[1,2-a]pyridin-7-yl)piperidin-4-yl)methyl)cyclopropanesulfonamide] | 2.5 µM | 4.8 µM | 2.3 µM | 1.9 µM | 2.4 µM | 0.00672 µM |
| COc1cc(OCCCN(C)C)c(-c2cn3ccc(N4CCC(N)CC4)cc3n2)cc1Cl [Example 150, 1-(2-{5-chloro-2-[3-(dimethylamino)propoxy]-4-methoxyphenyl}-imidazo[1,2-a]pyridin-7-yl)piperidin-4-amine] | 2.3 µM | 2.4 µM | 2.1 µM | 0.86 µM | 2.2 µM | 0.035 µM |
| COc1cc(OC)c(-c2cn3ccc(N)cc3n2)cc1Cl [Example 151, 2-(5-chloro-2,4-dimethoxyphenyl)imidazo[1,2-a]pyridin-7-amine] | 5.1 µM | 2.4 µM | 2.3 µM | 1.9 µM | 2.9 µM | 0.00827 µM |
| COC(=O)N1CCN(c2ccn3cc(-c4cc(Cl)c(OC)cc4OCCCN(C)C)nc3c2)CC1 [Example 152, methyl 4-(2-(5-chloro-2-(3-(dimethylamino)propoxy)-4-methoxyphenyl)-imidazo[1,2-a]pyridin-7-yl)piperazine-1-carboxylate] | 6.4 µM | 5.3 µM | 7.1 µM | 1.9 µM | 2.7 µM | 0.0199 µM |
| COc1cc(OC)c(-c2cn3ccc(N4CCNCC4)nc3n2)cc1Cl [Example 153, 2-(5-chloro-2,4-dimethoxyphenyl)-7-(piperazin-1-yl)imidazo[1,2-a]-pyrimidine] | 10 µM | 11 µM | 8.6 µM | 5.3 µM | 4.1 µM | 0.0526 µM |
| COc1cc(OCCCN(C)C)c(-c2cn3ccc(N4CCN(S(C)(=O)=O)CC4)cc3n2)cc1Cl [Example 155, 3-(4-chloro-5-methoxy-2-{7-[4-(methylsulfonyl)piperazin-1-yl]-imidazo[1,2-a]pyridin-2-yl}phenoxy)-N,N-dimethylpropan-1-amine] | 7.5 µM | 7.5 µM | 5.8 µM | 5.5 µM | 3.8 µM | 0.0127 µM |
